In patent US11963941B2, “Use of a fasting mimicking diet to enhance the efficacy of antiestrogens in cancer” (UNIVERSITA' DEGLI STUDI DI GENOVA, priority 2016, dated 2024):
“Also recorded” adds a separate entry of the source.

Assays:
MCF7 cells [1] = assay: Short-term viability assay (72 h, sulforhodamine B) with chemotherapeutics; type: cell-based; conditions: FIG. 7
Description: In the experiment of FIG. 7, 5×10^3 MCF7 cells/well were plated in 96-well plates in regular DMEM medium containing 10% FBS. 24 h later, the cell medium was removed and cells were incubated for 24 h either in the same medium or in low-glucose (0.5 g/L) DMEM medium containing 1% FBS (fasting mimicking conditions). 24 h later, 10 μM tamoxifen (Tam) was added to the culture medium where indicated. 24 h later, cells were stimulated with doxorubicin or Taxotere at the indicated concentrations. Viability was determined 72 h later in sulforhodamine B assays.

[2] = literature refs [5], [6]; cited from earlier work
MCF7 cells [3] = assay: Cell viability in control vs fasting mimicking (FMD) medium; type: cell-based; conditions: FMD = low-glucose (0.5 g/L) DMEM, 1% FBS, vs regular medium, FIG. 1A, 1D
Description: In particular, in the experiments of FIGS. 1A-D, 3×10^3 MCF7 (A, D), ZR-75-1 (B) or T47D (C) cells were plated in 96 well plates in regular DMEM medium containing 10% FBS. 24 h later, the cell medium was removed and cells were incubated for 24 h either in the same medium (CTR) or in low-glucose (0.5 g/L) DMEM medium containing 1% FBS (FMD). 24 h later, tamoxifen (Tam) or fulvestrant (Fulv) at the indicated concentrations were added to the culture medium.

MCF7 cells [4] = assay: Cell cycle analysis (G1 arrest); type: cell-based; conditions: 10 μM tamoxifen, 24 h, FIG. 2A
Description: (§1) In particular, in the experiments of FIGS. 2A-D, 5×10^5 MCF7, ZR-75-1 or T47D cells were plated in 6-well plates in regular DMEM medium containing 10% FBS. 24 h later, the cell medium was removed and cells were incubated for 24 h either in the same medium (CTR) or in fasting mimicking conditions or a fasting mimicking diet (FMD). 24 h later, 10 μM tamoxifen (Tam) was added to the culture medium where indicated. 24 h later, cells were used for cell cycle analysis or for mRNA extraction and subsequent determination of E2F1, E2F4 and CCNE1 expression by QPCR.

T47D cells [5] = assay: Cell cycle analysis (G1 arrest); type: cell-based; conditions: 10 μM tamoxifen, 24 h, FIG. 2C
Description: as §1

T47D cells [6] = assay: Cell viability in control vs fasting mimicking (FMD) medium; type: cell-based; conditions: FMD = low-glucose (0.5 g/L) DMEM, 1% FBS, vs regular medium, FIG. 1C
MCF7 cells [7] = assay: Gene expression by QPCR; type: cell-based
Description: as §1
In the experiment of FIG. 4, MCF7, ZR-75-1 or T47D cells were treated as in the experiment of FIG. 2. 24 h after tamoxifen (5 μM) addition, cells were used for protein lysate generation or for mRNA extraction, ER and β-actin were detected by immunoblotting. TTF1 expression was determined by QPCR.
In the experiment of FIG. 6, MCF7, ZR-75-1 or T47D cells were treated as in the experiment of FIG. 2. 24 h after tamoxifen (5 μM) addition, cells were used for RNA extraction or for protein lysate generation. In FIG. 6A, RAD51 expression was detected by QPCR. In FIG. 6B, RAD51 and (β-actin were detected by immunoblotting.

T47D cells [8] = assay: Gene expression by QPCR; type: cell-based
MCF7 cells [9] = type: cell-based; conditions: FMD + tamoxifen 5 μM, 24 h
MCF7 cells [10] = assay: Global gene expression microarrays; type: cell-based
[11] = type: in vivo; conditions: fasting (water only, 48 h) + tamoxifen 30 mg/kg/die; FIG. 8C
T47D cells [12] = tested on: T47D cells
MCF7 xenografts = assay: MCF7 xenograft tumor growth
[13] = FMD + tamoxifen 5 μM, 24 h, FIG. 4B
[14] = FMD + tamoxifen 5 μM, 24 h, FIG. 6A
[15] = FMD + tamoxifen 10 μM vs single treatments, FIG. 2D
[16] = MCF7 treated with tamoxifen and FMD, 4 biological replicates/condition
[17] = FMD + tamoxifen 5 μM, 24 h, FIG. 3

## CC(=O)O[C@@]12CO[C@@H]1C[C@H](O)[C@@]1(C)C(=O)[C@H](O)C3=C(C)[C@@H](OC(=O)[C@H](O)[C@@H](NC(=O)OC(C)(C)C)c4ccccc4)C[C@@](O)([C@@H](OC(=O)c4ccccc4)[C@H]21)C3(C)C [Taxotere, docetaxel]
MCF7 cells [1]; taxotere 100 nM
  cell viability, triple treatment tamoxifen + Taxotere + FMD: most pronounced reduction in cell viability

## COc1cccc2c1C(=O)c1c(O)c3c(c(O)c1C2=O)C[C@@](O)(C(=O)CO)C[C@@H]3O[C@H]1C[C@H](N)[C@H](O)[C@H](C)O1 [doxorubicin]
MCF7 cells [1]; doxorubicin 100 nM
  cell viability, triple treatment tamoxifen + doxorubicin + FMD: most pronounced reduction in cell viability

## CO[C@H]1C[C@@H]2CC[C@@H](C)[C@@](O)(O2)C(=O)C(=O)N2CCCC[C@H]2C(=O)O[C@H]([C@H](C)C[C@@H]2CC[C@@H](OCCO)[C@H](OC)C2)CC(=O)[C@H](C)/C=C(\C)[C@@H](O)[C@@H](OC)C(=O)[C@H](C)C[C@H](C)/C=C/C=C/C=C/1C [everolimus]
[2]
  significant side effects: stomatitis, anemia and hyperglycemia

## C[C@]12CC[C@@H]3c4ccc(O)cc4C[C@@H](CCCCCCCCC[S+]([O-])CCCC(F)(F)C(F)(F)F)[C@H]3[C@@H]1CC[C@@H]2O (some centres unmarked) [fulvestrant]
MCF7 cells [3]
  cell viability: potentiation of drug activity by FMD conditions: marked increase
MCF7 cells [4]
  induction of a G1 cell cycle arrest, drug + FMD: increased the ability
T47D cells [5]
  induction of a G1 cell cycle arrest, drug + FMD: increased the ability

## CC/C(=C(\c1ccccc1)c1ccc(OCCN(C)C)cc1)c1ccccc1 [tamoxifen]
MCF7 cells [3]
  cell viability: potentiation of drug activity by FMD conditions: strong potentiation
T47D cells [6]
  cell viability: potentiation of drug activity by FMD conditions: strong potentiation
MCF7 cells [4]
  induction of a G1 cell cycle arrest, drug + FMD: increased the ability
T47D cells [5]
  induction of a G1 cell cycle arrest, drug + FMD: increased the ability; also recorded: only occurred in response to a combined treatment
MCF7 cells [7]; [13]
  TTF1 expression (ERα-mediated transcription): increase the ability of tamoxifen to reduce TTF1 expression
MCF7 cells [7]; [14]
  RAD51 expression at the mRNA level: strong RAD51 downregulation
MCF7 cells [7]; [15]
  downregulation of cell cycle promoting genes (E2F1, E2F2 and CCNE1): more pronounced
T47D cells [8]; [13]
  TTF1 expression (ERα-mediated transcription): increase the ability of tamoxifen to reduce TTF1 expression
T47D cells [8]; [14]
  RAD51 expression at the mRNA level: strong RAD51 downregulation
T47D cells [8]; [15]
  downregulation of cell cycle promoting genes (E2F1, E2F2 and CCNE1): more pronounced; also recorded: only occurred in response to a combined treatment
MCF7 cells [9]; FIG. 3
  4E-BP1 phosphorylation state: marked accumulation of the unphosphorylated form
  mTOR activity (levels of phosphorylated p70S6K and eIF4E): marked inhibition of mTOR activity
MCF7 cells [9]; FIG. 6B
  RAD51 expression at the protein level: strong RAD51 downregulation
MCF7 cells [10]; MCF7, FMD added to tamoxifen vs FMD alone or tamoxifen alone, FIG. 5
  gene ontology/pathway analysis of differentially expressed genes: marked changes in pathways related to DNA repair
MCF7 cells [10]; [16]
  BRCA1 Log2 fold change: −1.372
  EXO1 Log2 fold change: −1.583
  PCNA Log2 fold change: −1.658
  RAD51 Log2 fold change: −1.864
  TIPIN Log2 fold change: −1.604
[11]
  mouse body weight loss, addition of drug to fasting: failed to worsen weight losses
T47D cells [12]; [17]
  4E-BP1 phosphorylation state: marked accumulation of the unphosphorylated form
  mTOR activity (levels of phosphorylated p70S6K and eIF4E): marked inhibition of mTOR activity
T47D cells [12]; FMD + tamoxifen 5 μM, 24 h, FIG. 6B
  RAD51 expression at the protein level: strong RAD51 downregulation
T47D cells [12]; FMD in combination with tamoxifen 5 μM, FIG. 3
  HER2 expression: marked reduction in HER2 expression
MCF7 xenografts; normal diet, tamoxifen 30 mg/kg/die oral gavage, FIG. 8A
  growth of MCF7 xenografts (tumor volume), drug alone: reduced the growth
MCF7 xenografts; tamoxifen 30 mg/kg/die oral gavage + fasting (water only, 48 h, once a week), p<0.05
  growth of MCF7 xenografts (tumor volume), drug + fasting: significantly more effective than either type of treatment alone
